Patent US20140378380A1, “USE OF UNACYLATED GHRELIN, FRAGMENTS AND ANALOGS THEREOF AS ANTIOXIDANT” (Alizé Pharma SAS, priority 2013, published 2014)
Ends that are not written are not given here. * marks the point of attachment. Octanoyl = CCCCCCCC(=O)*

Columns and labels:
[1] = system: primary SCs; assay: Primary SCs from normo-perfused muscles subjected to in vitro ischemia; format: cell-based, mice
Description: (§1) SCs were isolated from gastrocnemius muscles of C57BL/6J wild type mice subjected to ischemia or C57BL/6J mice lacking the GHSR1a and ghrelin genes (10 mice, kind gift of Professor M. Tschöp)^39. To obtain SCs, muscle samples were subjected to enzymatic digestion as described^45. In selected experiments, SCs were recovered from normo-perfused muscles and subjected to in-vitro ischemia in presence of saline, AG (1 μmol/L) or UAG (1 μmol/L). In-vitro ischemia was induced by incubating cells in DMEM+2% FCS at 5% CO2/95% N2 humidified atmosphere, yielding 1% O2 concentrations for 24 h^18. The in-vitro ischemia was also performed in the presence of SB202190 (1 μmol/L).
(§2) SC cell-cycle progression was evaluated by evaluating the percentage of PCNA-positive cells or by FACS analysis as previously described^46. The percentage of cells in each cell cycle phase was determined by ModFit LT software (Verity Software House. Inc, topsham, ME, USA). Celss proliferation was also assayed by evaluating the percentage of PCNA-positive cells by FACS analysis.
(§3) Cells were lysed and protein detection was obtained as previously described^47. Cells were lysed (50 mmol/L Tris HCl [pH 8.3], 1% Triton X-100, 10 mmol/L PMSF, 100 U/ml aprotinin, 10 μmol/L leupeptin) and protein concentrations were obtained as previously described^47. […] Densitometric analysis was used to calculate the differences in the fold induction of protein levels and normalized to tubulin, a actin or p38MAPK content. Values are reported as relative amount
(§4) Intracellular ROS production was evaluated using DCF-DA (5-(and-6)-carboxy-2′,7′-dichlorofluorescein diacetate, […] final concentration) (Molecular Probe, Invitrogen) assay as previously described^23. The formation of TBARS was determined in muscles using the OXI-TEK kit (ZeptoMetrix Corp.) and a luminescence spectrometer (Bio-Rad Laboratories, Hercules, Calif.) with excitation set at 530 nm, emission at 550 nm to measure in-vivo oxidative stress levels^33.
(§5) Total RNA was isolated using TRIzol reagent (Invitrogen) from SCs recovered from muscles of treated animals or from SCs subjected to in-vitro ischemia. miR-221/222 expression was evaluated by qRT-PCR as previously described^48. Loss-of-function experiments were performed in SCs transfected for 48 h with anti-miRNA negative control, anti-miR-221/222 antagonists (Applied Biosystem, Foxter Cyto CA, USA), according to the manufacturer's instructions^48.
To obtain SOD-2 inactivation, SCs were transiently transfected with siRNA for SOD-2 or with duplex siRNAs (Qiagen, Valencia, Calif., USA) as previously described^44. Transfection was performed according to the manufacturer's instructions. Whole cell extracts were processed 48 h after transfection. Cell viability was evaluated at the end of each experiment. […]

[2] = system: SCs from double KO mice; assay: SCs from double KO mice (lacking GHSR1a and ghrelin genes) subjected to in vitro ischemia; format: cell-based; details: for protection of SCs from ROS generation: DCF-DA
Description: as §1, §2, §3, §4

[3] = system: C57BL/6J mice; assay: Murine hind-limb ischemia model (foot damage score, histology, IF, TBARS); format: in vivo; details: for capillary density, ischemic vs contralateral control muscle of the same animals: ischemic vs normo-perfused muscle; for protection against ischemia-induced damage (in vivo effects): overall conclusion; for foot damage (functional score): unilateral hind-limb ischemia, i.p. daily from day 0 to day 21, vs saline
Description: (§6) Male C57BL/6J mice (Charles River Lab., Wilmington, Mass., USA) were anesthetized and unilateral hind limb ischemia was induced as described^42. The normo-perfused contralateral limb of each mouse was used as an internal control. After hind-limb ischemia, animals (18 mice per group) were treated by intra-peritoneal injection daily from 0 to day 21 with either saline, AG ([…]) or UAG ([…]). In selected experiments, mice received intramuscular injections of pre-miR oligonucleotides (5 mice/group). To induce toxic damage, 100 μl of 1% barium chloride (BaCl2, Sigma Aldrich) was injected unilaterally into the hind limb (9 mice). Mice were treated according to European Guidelines and policies as approved by the University of Turin Ethical Committee.
Semiquantitative estimation (by repeated measures analyzed with ANOVA and Newman-Keuls Multiple Comparison test) of foot damage was performed serially using the following classification: 3=dragging of foot (foot necrosis), 2=no dragging but no plantar flexion (foot damage), 1=plantar flexion but no toe flexion (toe damage), and 0=flexing the toes to resist gentle traction on the tail (no damage)^43.
(§7) Gastrocnemius muscle sections from ischemic or normo-perfused limbs were stained with hematoxylin and eosin for histological analysis. The proportion of fibers with central nuclei (regenerating fibers) was measured by MetaMorph software (Life Sciences Research Imaging Systems) in the injured area and the cross-sectional areas of the fibers in the injured and non-injured areas. For IF analysis, muscle sections were processed as described previously^44. The number of cells expressing the indicated markers or CD31 positive vessels was evaluated as previously described^34.
as §4

[4] = U.S. Pat. Nos. 8,222,217 and 8,318,664; cited from earlier work
[5] = system: satellite cells (SCs); assay: SCs recovered from ischemic muscles of treated mice (count, Western blot, DCF-DA, qRT-PCR); format: in vivo
Description: as §6, §1, §3, §4, §5

[6] = molecular target: GHSR-1a (Homo sapiens, UniProt Q92847); details: cited from earlier work
GHSR-1a, sequence (Q92847 whole entry): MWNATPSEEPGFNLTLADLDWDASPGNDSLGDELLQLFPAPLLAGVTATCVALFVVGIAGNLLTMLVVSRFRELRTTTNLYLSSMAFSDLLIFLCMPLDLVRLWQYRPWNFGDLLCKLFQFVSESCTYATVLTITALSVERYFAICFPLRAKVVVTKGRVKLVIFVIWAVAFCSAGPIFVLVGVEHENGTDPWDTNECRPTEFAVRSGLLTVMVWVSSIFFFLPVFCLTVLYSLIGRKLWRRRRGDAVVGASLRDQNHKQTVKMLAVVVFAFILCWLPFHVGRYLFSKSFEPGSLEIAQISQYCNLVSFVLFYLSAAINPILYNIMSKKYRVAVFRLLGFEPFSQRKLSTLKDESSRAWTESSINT

[7] = system: C57BL/6J mice; assay: Toxic damage induced by 1% barium chloride (BaCl2) in gastrocnemius muscle; format: in vivo; details: 1% BaCl2 injected into hind limb
Description: as §6, §7

[8] = system: healthy volunteers; details: administered concomitantly in healthy volunteers; cited from earlier work
[9] = system: endothelial progenitor cells (EPCs); details: cited from earlier work
[10] = system: GH secretion; details: cited from earlier work
[11] = system: C2C12 mouse muscular cell line; assay: ROS production (DCF-DA) in C2C12 cells subjected to oxidative stress; format: cell-based; details: for protective effect on C2C12 cells against oxidative stress: oxidative stress by hypoxia, AGEs, hyperglycemia or H2O2, 1 μmol/L; for retention of the functions of UAG: results provided herein
Description: Kinetic analysis of ROS production was evaluated by using DCF-DA (5-(and-6)-carboxy-2′,7′-dichlorofluorescein diacetate, 0.5 μmol/L final concentration) (Molecular Probe, Invitrogen) assay. C2C12 cells were cultured with 400 μg/ml Advanced Glycated End-product (AGE) or 25 mM glucose (high glucose HG) for 48 h, H2O2 (100 μM) for 2 h. In parallel experiments C2C12 cells were subjected to hypoxia (DMEM+2% FCS in a 5% CO2-95% N2 humidified atmosphere, yielding to 1% O2 concentrations for 24 h). UAG (1 μmol/L) AZP 531 (1 μmol/L) or AZP-502 (1 μmol/L) was added where indicated.

[12] = SB202190 1 μmol/L added, in vitro ischemia
[13] = SOD-2 silenced using siRNA, in vitro ischemia
[14] = in vitro ischemia 1% O2 24 h, 1 μmol/L

In the case of `Oc1ccc(-c2nc(-c3ccncc3)c(-c3ccc(F)cc3)[nH]2)cc1` [SB202190, reference compound], the “MyoD and myogenin expression in SCs exposed to UAG” value [1, 12] was “prevented MyoD and myogenin expression” and the “cell-cycle entry of SCs exposed to UAG” value [1, 12] was “blocked cell-cycle entry”.

With “AG: 28 amino acid peptide characterized by the presence of an n-octanoyl modification on the Ser3 residue (GSS(Octanoyl)FLSPEHQRVQQRKESKKPPAKLQPR; UniProt Q9UBU3 24-51, looked up) [reference compound]” the “protection of SCs from ROS generation” value [2] was “unlike AG”, the “concentration of TBARS in ischemic muscles” value ([3]; gastrocnemius muscle) was “Significant increases” and the “capillary density, ischemic vs contralateral control muscle of the same animals” value [3] was “significantly lower capillary density”. The “protection against ischemia-induced damage (in vivo effects)” value [3] was “failure to detect in vivo effects” and the “foot damage (functional score)” value [3] was “significantly higher”.

For EHQRVQ [UAG (8-13)], the “activity on glucose, insulin and lipid metabolisms relative to UAG full length” value [4] is given as “retain the activity of UAG full length”.

For “Glu-His-Gln-Arg (EHQR; listed as Homo sapiens) [UAG (8-11)]”, the “activity on glucose, insulin and lipid metabolisms relative to UAG full length” value [4] is listed as “retain the activity of UAG full length”.

For “Glu-His-Gln-Arg-Val (EHQRV; listed as Homo sapiens) [UAG (8-12)]”, the “activity on glucose, insulin and lipid metabolisms relative to UAG full length” value [4] is listed as “retain the activity of UAG full length”.

With “Gly-Ser-Ser-Phe-Leu-Ser-Pro-Glu-His-Gln-Arg-Val-Gln-Gln-Arg-Lys-Glu-Ser-Lys-Lys-Pro-Pro-Ala-Lys-Leu-Gln-Pro-Arg (GSSFLSPEHQRVQQRKESKKPPAKLQPR; listed as Homo sapiens) [UAG]” the SC cell-cycle progression [2] was “only UAG promoted SC cell-cycle progression”, the SOD-2 expression [2] was “induced SOD-2 expression” and the “p-p38/MAPK, Pax-7, MyoD, Myf5 and myogenin expression” value [2] was “induced”. The “protection of SCs from ROS generation” value [2] was “protected SCs from ROS generation”, the “ROS production in SCs from treated mice” value ([5]; DCF-DA assay) was “lower” and the “levels of phospho(p)-p38/MAPK protein in SCs” value ([5]; SCs from treated mice, Western blot) was “found to be higher”. For the same compound, the “SOD-2 protein expression in SCs from treated mice” value ([5]; Western blot) was “higher”, the “levels of p57kip2 protein in SCs from treated mice” value ([5]; Western blot) was “reduced” and the “number of Pax-7/MyoD/Myf5+ SCs isolated and counted ex vivo” value ([5]; ischemic muscles of treated mice) was “significantly increased number”. The “expression of miR-221 and miR-222 in SCs recovered from muscles of treated mice” value ([5]; qRT-PCR, compared to controls) was “significantly increased”, the “binding to GHSR-1a” value [6] was “fails to bind” and the “regeneration of skeletal muscle after BaCl2 (ROS-independent damage)” value [7] was “regeneration of skeletal muscle was no longer observed”. The “hyperglycemic effects of ghrelin” value [8] was “prevent the hyperglycemic effects of ghrelin”, the “cell-cycle entry or expression of SOD-2, Pax-7, MyoD, or myogenin” value ([1]; SCs transfected with anti-miR-221/222 antago-miRs (data not shown)) was “no longer had any effect” and the p-p38/MAPK levels ([1]; SCs transfected with anti-miR-221/222 antago-miRs, UAG (data not shown)) was “p-p38/MAPK levels were reduced”. For the same compound, the “UAG-induced miR-221/222 expression” value ([1]; SOD-2 knock-down, in vitro ischemia) was “prevents UAG-induced miR-221/222 expression”, the cell-cycle progression [1, 13] was “did not undergo cell-cycle progression” and the p38/MAPK phosphorylation [1, 13] was “did not induce p38/MAPK phosphorylation”. The “protection of SCs against ROS generation” value [1, 13] was “did not protect SCs against ROS generation”, the “expression of Pax-7, MyoD” value [1, 14] was “induced expression” and the expression of myogenin [1, 14] was “induced expression”. The “levels of pp38/MAPK” value [1, 14] was “increased levels”, the ROS production ([1]; in vitro ischemia, DCF-DA) was “ROS production was decreased” and the PCNA expression ([1]; in vitro ischemia, FACS) was “increased PCNA expression”. For the same compound, the “number of cells in S phase” value ([1]; in vitro ischemia, FACS) was “increased”, the SOD-2 expression ([1]; in vitro ischemia, Western blot) was “SOD-2 expression increased” and the “protection of EPCs from oxidative stress (ROS generation)” value [9] was “only UAG protects endothelial progenitor cells (EPCs) from oxidative stress”. The “effect on GH secretion” value [10] was “no physiological effect on GH secretion”, the “number of Pax-7/MyoD+ cells in ischemic muscles” value ([3]; day 7) was “increased number of Pax-7/MyoD+ cells” and the “Pax-7/MyoD+ cells in ischemic muscles” value ([3]; day 21) was “scattered Pax-7/MyoD+ cells were still present”. The “number of SOD-2/Pax-7+ cells in ischemic muscle” value ([3]; double immunostaining, day 7) was “increased number of SOD-2/Pax-7+ cells”, the “number of CD68-positive inflammatory cells” value ([3]; ischemic muscle) was “reduced number of CD68-positive inflammatory cells” and the “number of regenerating myofibers in gastrocnemius muscles” value ([3]; ischemic muscle) was “increased number of regenerating myofibers”. The “number of myogenin-positive cells in ischemic muscles” value ([3]; ischemic muscles) was “increased number of myogenin-positive cells”, the “number of functional vessels in ischemic muscles” value ([3]; ischemic muscles, compared to the other groups) was “larger number of functional vessels” and the “capillary density, ischemic vs contralateral control muscle of the same animals” value [3] was “no such differences were observed”. The “protection against ischemia-induced damage (in vivo effects)” value [3] was “appears to protect against ischemia-induced damage”, the “foot damage (functional score)” value [3] was “damage was significantly higher in saline- and AG-treated groups than in the UAG-treated group” and the “protective effect on C2C12 cells against oxidative stress” value (“protective effect on C2C12 cells” below) [11] was “have a protective effect”.

For “His-Gln-Arg (HQR; listed as Homo sapiens) [UAG (9-11)]”, the “activity on glucose, insulin and lipid metabolisms relative to UAG full length” value [4] is given as “retain the activity of UAG full length”.

For “His-Gln-Arg-Val (HQRV; listed as Homo sapiens) [UAG (9-12)]”, the “activity on glucose, insulin and lipid metabolisms relative to UAG full length” value [4] is given as “retain the activity of UAG full length”.

For SPEHQRVQ [UAG (6-13)], the “activity on glucose, insulin and lipid metabolisms relative to UAG full length” value [4] is listed as “retain the activity of UAG full length”, the “protective effect on C2C12 cells” value [11] is listed as “have a protective effect” and the “retention of the functions of UAG” value [11] is listed as “retain the functions of UAG”.

With “Ser-Pro-Glu-His-Gln-Arg-Val-Gln (cycl) (SPEHQRVQ; cyclic; (1)..(8) Cyclic; listed as Homo sapiens) [UAG(6-13)cyclic]” the “protective effect on C2C12 cells” value [11] was “have a protective effect” and the “retention of the functions of UAG” value [11] was “retain the functions of UAG”.
